Laboratory results: patent publication US20260306525A1, “COMBINATION THERAPY GLUCOCORTICOIDS AND GINSENOSIDE” (FYTAGORAS B.V., priority 2023, published 2026)

How the values were obtained:
macrophages = test: zebrafish tail fin wounding assay, macrophage migration to wounded site; type: in vivo, zebrafish (Danio rerio); settings: Example 2; PPT 50 μM; F1, Rh1, Rg1 100 μM; Bec positive control; 3 dpf
Protocol: Zebrafish (Danio rerio) were maintained and handled according to the guidelines from the Zebrafish Model Organism Database (http://zfin.org) and in compliance with the directives of the local animal welfare committee of Leiden University. Zebrafish were exposed to a 14 h light and 10 h dark cycle to maintain circadian rhythmicity. Fertilization was performed by natural spawning at the beginning of the light period. […] The following zebrafish lines were used in this study: the double transgenic line Tg(mpx:GFP^i114/mpeg1:mCherry^umsF001), in which neutrophils and macrophages are fluorescently labeled (green and red, respectively), and the Tg(9xGCRE-HSV.UI23:EGFP)^ia20 reporter line, in which the gene encoding enhanced green fluorescent protein (EGFP) is driven by a GRE-containing promoter.
For the tail fin wounding experiments, 20 larvae at 2 or 3 days post-fertilization (dpf) were utilized for each experimental group. For wounding, larvae were anesthetized in egg water containing 0.02% buffered aminobenzoic acid ethyl ester (tricaine; Sigma-Aldrich). Larvae were placed on Petri dishes coated with 2% agarose under a Leica M165C stereomicroscope (Leica Microsystems, Wetzlar, Germany), and the tails were partly amputated using a 1-mm sapphire blade (World Precision Instruments, Sarasota, FL, USA). For quantification of leukocyte migration, larvae were fixed overnight in 4% paraformaldehyde (PFA) at 4° C. The next day, fixed larvae were washed with Phosphate Buffered Saline (PBS) containing 0.1% Tween 20, and stored at 4° C. until imaging.
The macrophages were detected based on their red (mCherry) fluorescence, and neutrophils based on their green (EGFP) fluorescence. To quantify the number of macrophages and neutrophils recruited to the wounded area, the cells in a defined area of the tail were determined by blinded manual counting.
Zebrafish (Danio rerio) were maintained and handled according to the guidelines from the Zebrafish Model Organism Database (http://zfin.org) and in compliance with the directives of the local animal welfare committee of Leiden University. Zebrafish were exposed to a 14 h light and 10 h dark cycle to maintain circadian rhythmicity. Fertilization was performed by natural spawning at the beginning of the light period. […] The following zebrafish lines were used in this study: AB/TL wild type, the transgenic lines Tg(mpx:GFP^i114/mpeg1:mCherry^umsF001)[14, 15], and Tg(9xGCRE-HSV.UI23:EGFPia^20)[16], and the mutant lines grs357[20].
For the tail fin wounding experiments, 2- or 3-days post-fertilization (dpf) larvae were anesthetized in egg water containing 0.02% buffered aminobenzoic acid ethyl ester (tricaine; Sigma-Aldrich). Larvae were placed in Petri dishes coated with 2% agarose under a Leica M165C stereomicroscope (Leica Microsystems, Wetzlar, Germany), and the tails were partly amputated using a 1-mm sapphire blade (World Precision Instruments, Sarasota, FL, USA).
In experiments in which the leukocyte migration was used as a readout, larvae were subjected to treatment with chemicals as indicated, starting at 2 h before the amputation (pretreatment), and treatment was continued for 4 h after the tail fin amputation (20 larvae per group, unless indicated otherwise). In some experiments, a 24 h treatment with MZ31 (10 μM) was started at 2 dpf, and these treatments were continued during the pretreatment and treatment with the other chemicals. At 4 h after amputation, the larvae were fixed in 4% paraformaldehyde (PFA) overnight at 4° C. The next day, fixed larvae were washed with Phosphate Buffered Saline (PBS) containing 0.1% Tween 20 and stored at 4° C. until imaging. […] The macrophages were detected based on red (mCherry) fluorescence and neutrophils on their green (EGFP) fluorescence. To quantify the number of macrophages and neutrophils recruited to the wounded area, the cells in a defined area of the tail were determined by blinded manual counting. […]

il8 = test: qPCR il8 expression in zebrafish larvae; type: in vivo, zebrafish (Danio rerio); settings: Example 2, wounded larvae
Protocol: (§1) To determine mRNA levels of specific genes in zebrafish, 3 dpf larvae were used (wounded and non-wounded) and after 6 h of chemical treatments (2 h pre-wounding, 4 h post-wounding), as indicated. Per sample, groups of 15 larvae were collected in TRIzol reagent (Thermo Fisher Scientific, Waltham, MA, USA), and total RNA was isolated using the miRNeasy mini kit (Qiagen, Hilden, Germany). For similar experiments in Hela cells, cells were seeded in 6 well plates, and after 6 h of chemical treatment, the cells were removed from the wells using TRIzol reagent, and total RNA was isolated using the miRNeasy mini kit according to the manufacturer's instructions. The RNA samples were DNAse-treated utilizing the DNA-free™ DNA Removal Kit (Thermo Fisher Scientific). The cDNA synthesis was performed using the iScript cDNA synthesis kit (Bio-Rad Laboratories, Hercules, CA, USA) using 1 μg of RNA per sample. For the PCR reactions, 10 μM of forward and 10 μM of reverse primer, 12.5 μl of iQ SYBR Green Supermix (Bio-Rad), and 2 μl of cDNA were added to the qPCR reaction mixture. […] The reactions were performed on a MyiQ-single-color real-time PCR detection system (Bio-Rad Laboratories) with initial denaturation for 3 min at 95° C. and 40 cycles of 15 s at 95.5° C., 15 s at 60° C., and 30 s at 72° C. Cycle threshold values (Ct values, i.e. the cycle numbers at which a threshold value of the fluorescence intensity was reached) were determined for each sample. The gene expression level for each sample was normalized using the expression of ppial (peptidylprolyl isomerase Ab (cyclophilin A)) for zebrafish samples, 18S rRNA for human cells. The fold change per sample (compared to the respective control group) was calculated using the ΔΔCt method.

mmp13 = test: qPCR mmp13 expression in zebrafish larvae; type: in vivo, zebrafish (Danio rerio); settings: Example 2, wounded larvae
Protocol: as §1

zebrafish larvae = test: larval body length; settings: for larval length: Example 2, 5 dpf; for larval length at 5 dpf: 0-5 dpf, 10 μM beclomethasone, 50 μM Rg1 or combination
Protocol: In experiments in which the length of regenerated tail fin tissue after wounding, or the larval body length, was used as a readout, chemical treatments were started at 2 hours post-fertilization (hpf) and continued until 5 dpf, as indicated (15 larvae per treatment group). During this period, solutions were refreshed daily. For the regeneration experiments, tail fins were amputated at 2 dpf. At 5 dpf, larvae were fixed overnight in 4% PFA at 4° C. For determination of the larval length and the regeneration of the tail fins, larvae were imaged using a LeicaMZ16FA fluorescence stereomicroscope supported by LAS 3.7 software. The length of the entire larva or the newly grown tissue was measured using ImageJ software. The newly grown tissue can be visually distinguished from the old tissue, enabling precise measurement of its length.

SMILES | macrophage migration upon tail fin wounding (macrophages) | il8 expression (il8) | mmp13 expression (mmp13) | larval length (zebrafish larvae) | larval length at 5 dpf (zebrafish larvae)
CC(C)=CCC[C@](C)(O)[C@H]1CC[C@]2(C)[C@@H]1[C@H](O)C[C@@H]1[C@@]3(C)CC[C@H](O)C(C)(C)[C@@H]3[C@@H](O)C[C@]12C [PPT, Protopanaxatriol] | without affecting the macrophage migration | Only a minor effect | Only a minor effect | minor effect on larval length | –
C[C@H]1C[C@H]2[C@@H]3CCC4=CC(=O)C=C[C@]4(C)[C@@]3(Cl)[C@@H](O)C[C@]2(C)[C@@]1(O)C(=O)CO [beclomethasone, reference compound] | without affecting the macrophage migration | – | – | decrease in larval length | significantly decreased
CC(C)=CCC[C@](C)(O[C@@H]1O[C@H](CO)[C@@H](O)[C@H](O)[C@H]1O)[C@H]1CC[C@]2(C)[C@@H]1[C@H](O)C[C@@H]1[C@@]3(C)CC[C@H](O)C(C)(C)[C@@H]3[C@@H](O[C@@H]3O[C@H](CO)[C@@H](O)[C@H](O)[C@H]3O)C[C@]12C [Rg1, (3β,6α, 12β)-3,12-Dihydroxydammar-24-ene-6,20-diyl bis-β-D-glucopyranoside] | without affecting the macrophage migration | no effect | no effect | did not show any side effects | did not affect the larval length
CC(C)=CCC[C@](C)(O)[C@H]1CC[C@]2(C)[C@@H]1[C@H](O)C[C@@H]1[C@@]3(C)CC[C@H](O)C(C)(C)[C@@H]3[C@@H](O[C@@H]3O[C@H](CO)[C@@H](O)[C@H](O)[C@H]3O)C[C@]12C [Rh1] | without affecting the macrophage migration | no effect | no effect | did not show any side effects | –
CC(C)=CCC[C@](C)(O[C@@H]1O[C@H](CO)[C@@H](O)[C@H](O)[C@H]1O)[C@H]1CC[C@]2(C)[C@@H]1[C@H](O)C[C@@H]1[C@@]3(C)CC[C@H](O)C(C)(C)[C@@H]3[C@@H](O)C[C@]12C [F1] | without affecting the macrophage migration | Only a minor effect | Only a minor effect | did not show any side effects | –
